Read-outs that look alike come from different tables or passages of the source. Bounds are passed on as bounds.

A word on the IC50: it is the concentration at which inhibition is half-maximal.

Format in all cases: cell-based
For one assay, the system named is HT29. The assay can be described thus: MTS assay (cytotoxicity), growth inhibition of HT29. The conditions noted are these: Homo sapiens, HT-29, 120 h, Table 4, 5 days, means of three independent experiments, read-out: HT29 IC50 (growth inhibition). The method, then: (§1) Cells were seeded in 96-well plates at 2000 cells/well in a final culture volume of 100 ul for 24 hours before the addition of 25 ul of increasing concentrations of inhibitors that was incubated for 5 days. Viable cell number was determined using the CellTiter 96 AQueous One Solution Cell Proliferation Assay (Promega). Plates were read at 490 nm absorbance 2-4 hours after addition of the MTS reagent using a multiwell plate spectrophotometer. Background was determined by measuring the Abs 490 nm of cell culture medium and MTS in the absence of cells. The background value was subtracted from all values. Absorbance 490 nm values for each inhibitor were plotted against the log 10 inhibitor concentration, and IC50 values were calculated using a nonlinear least-square curve fitting program in Prism 5.

The next assay concerns SKBR-3. Put plainly: MTS assay (cytotoxicity), growth inhibition of SKBR-3. The conditions noted are these: Homo sapiens, SK-BR-3, 120 h. The method, then: as §1
The test system of assay [1] is HSP90 client protein Her2 in SKBR-3 cells. The assay can be described thus: Her-2 degradation assay (Her-2 ELISA) in SKBr-3 cells. The note with it: Homo sapiens. Here is the method:
Most of the compounds synthesized were evaluated for their ability to induce degradation of the HSP90 client protein Her2 in SKBR-3 cells. Selected compounds were evaluated in a fluorescence polarization (FP) assay for their affinity to HSP90.
SKBr-3 cells grown in McCoy's 5a Medium supplemented with 10% fetal bovine serum (FBS) were plated into 12-well plates at 50% confluency. Increasing concentrations of inhibitors were added 24 hours later (cells are 65-70% confluent) and incubated overnight for 18 hours. The wells were washed with 2 ml of phosphate buffered saline (PBS), and 50 ul of trypsin was added to each well. After trypsinization was complete, 150 ul of FBS was added to each well. Then 200 ul of cells were transferred to 96-well plates and plates were centrifuged at 1200 rpm for 2 minutes using a tabletop centrifuge. The cells were washed once with 250 ul PBS before being lysed with 100 ul of 50 mM Tris (pH 7.4), 0.1% NP-40 lysis buffer. Protein concentrations of clarified lysates were determined using the BCA Assay (Calbiochem) according to the manufacturer's instructions. 2 ug of each lysate was analyzed in the human sp 185 Her-2 ELISA (Bender Medsystems) according to the manufacturer's instructions. ELISA plates were read at 450 nm using a multiwell plate spectrophotometer. Background was determined by measuring the Abs 450 nm of wells with no lysate added. The background value was subtracted from all values. Absorbance 450 nm values for each inhibitor were plotted against the log 10 inhibitor concentration, and IC50 values were calculated using a nonlinear least-square curve fitting program in Prism 5.
In general terms: An ELISA detects its analyte on a solid surface through an enzyme-linked reagent.

The next assay deals with BT474. Put plainly: MTS assay (cytotoxicity), growth inhibition of BT474. The conditions noted are these: Homo sapiens, BT-474, 120 h. Here is the method:
as §1
For orientation: Tetrazolium assays rely on reduction of a dye to a coloured formazan, in cell work by metabolically active cells.

The subject of another assay is MCF-7. Put plainly: MTS assay (cytotoxicity), growth inhibition of MCF-7. The conditions noted are these: Homo sapiens, MCF7, 120 h. The method, then:
as §1

Setting [2] is: Table 4, 5 days, means of three independent experiments, read-out: SKBR-3 IC50 (growth inhibition).
Where [3] appears, read: SK-BR-3, Table 1, series I, 18 hours, means of three independent experiments.
Setting [4] is: Table 4, 5 days, means of three independent experiments, read-out: BT474 IC50 (growth inhibition).
Setting [5] is: Table 4, 5 days, means of three independent experiments, read-out: MCF-7 IC50 (growth inhibition).
The mark [6] stands for this setting: Table 5, series III, 5 days, read-out: Growth Inhibition (IC50) SKBR-3.
Setting [7] is: SK-BR-3, Table 5, series III, 18 hours.
Setting [8] is: Table 5, series III, 5 days, read-out: Growth Inhibition (IC50) BT474.
[9] abbreviates: Table 5, series III, 5 days, read-out: Growth Inhibition (IC50) MCF-7.

Turning to `COc1c(C)cnc(CN2CC(=O)N(CCN3CCCC3)c3c(Cl)nc(N)nc32)c1C` [Example I-7], the IC50 turned out to be 1080 nM with HT29; 300 nM in the assay with SKBR-3 (setting [2]); 510 nM in assay [1] (setting [3]); 520 nM in the assay on BT474 (setting [4]); 1320 nM in the assay on MCF-7 (setting [5]).
On the same counts, the results for `COc1c(C)cnc(CN2CC(=O)N(CCCN3CCOCC3)c3c(Cl)nc(N)nc32)c1C` [Example I-10] are 2950 nM, 1110 nM, 1550 nM, 1810 nM and 2590 nM.
Consider `COc1cc(CN2CC(=O)N(CC(C)C)c3c(Cl)nc(N)nc32)c(Cl)c(OC)c1OC` [Example I-36], for which the IC50 in assay [1] (SK-BR-3, Table 3, 18 hours, means of three independent experiments) was over 5000 nM.
On to `CCN(CC)CCCNC(=O)c1c[nH]c(/C=C2\C(=O)N(Cc3ncc(C)c(OC)c3C)c3nc(N)nc(Cl)c32)c1` [III-29, (Z)-5-((2-Amino-4-chloro-7-((4-methoxy-3,5-dimethylpyridin-2-yl)methyl)-6-oxo-6,7-dihydro-5H-pyrrolo[2,3-d]pyrimidin-5-ylidene)methyl)-N-(3-(diethylamino)propyl)-1H-pyrrole-3-carboxamide], for which the IC50 in the assay with SKBR-3 (setting [6]) was found to be 20 nM; in assay [1] (setting [7]), 70 nM; in the assay with BT474 (setting [8]), 30 nM; with MCF-7 (setting [9]), 410 nM.
Regarding `COc1c(C)cnc(CN2C(=O)/C(=C\c3cc(C(=O)NCCN4CCC(=O)CC4)c[nH]3)c3c(Cl)nc(N)nc32)c1C` [III-36, (Z)-5-((2-Amino-4-chloro-7-((4-methoxy-3,5-dimethylpyridin-2-yl)methyl)-6-oxo-6,7-dihydro-5H-pyrrolo[2,3-d]pyrimidin-5-ylidene)methyl)-N-(2-(4-oxopiperidin-1-yl)ethyl)-1H-pyrrole-3-carboxamide], the IC50 in the assay on SKBR-3 (setting [6]) is 0.9 nM; in assay [1] (setting [7]), 8 nM; in the assay on BT474 (setting [8]) it was 3 nM; with MCF-7 (setting [9]), 410 nM.
`CCN(CC)CCNC(=O)c1c[nH]c(/C=C2\C(=O)N(Cc3nc(C)c(C)s3)c3nc(N)nc(Cl)c32)c1` [III-69, (Z)-5-((2-Amino-4-chloro-7-((4,5-dimethylthiazol-2-yl)methyl)-6-oxo-6,7-dihydro-5H-pyrrolo[2,3-d]pyrimidin-5-ylidene)methyl)-N-(2-(diethylamino)ethyl)-1H-pyrrole-3-carboxamide]: the IC50 in the assay on SKBR-3 (setting [6]) came out at 10 nM; in assay [1] (setting [7]), 10 nM; in the assay on BT474 (setting [8]) it was 60 nM; in the assay on MCF-7 (setting [9]), 770 nM.
`Cc1nc(CN2C(=O)/C(=C\c3cc(C(=O)NCCN4CCOCC4)c[nH]3)c3c(Cl)nc(N)nc32)sc1C` [III-70]: the IC50 worked out at 20 nM in the assay on SKBR-3 (setting [6]), 40 nM in assay [1] (setting [7]), 80 nM in the assay on BT474 (setting [8]) and 320 nM in the assay on MCF-7 (setting [9]).
On the same counts, the results for `COc1c(C)cnc(CN2C(=O)/C(=C\c3nc(NC(=O)C(C)C)c[nH]3)c3c(Cl)nc(N)nc32)c1C` [III-71, (Z)-N-(2-((2-Amino-4-chloro-7-((4-methoxy-3,5-dimethylpyridin-2-yl)methyl)-6-oxo-6,7-dihydro-5H-pyrrolo[2,3-d]pyrimidin-5-ylidene)methyl)-1H-imidazol-4-yl)isobutyramide] are 30 nM, 50 nM, 80 nM and 370 nM.
On the same counts, the results for `CCN(CC)CCCc1ccc(/C=C2\C(=O)N(Cc3ncc(C)c(OC)c3C)c3nc(N)nc(Cl)c32)[nH]1` [III-86] are 1130 nM, 310 nM, 760 nM and 1370 nM.
On the same counts, the results for `COc1c(C)cnc(CN2C(=O)/C(=C\c3cc(C(=O)CN4CCOCC4)c[nH]3)c3c(Cl)nc(N)nc32)c1C` [III-93, (Z)-2-Amino-4-chloro-7-((4-methoxy-3,5-dimethylpyridin-2-yl)methyl)-5-((4-(2-morpholinoacetyl)-1H-pyrrol-2-yl)methylene)-5H-pyrrolo[2,3-d]pyrimidin-6(7H)-one] are 10 nM, 20 nM, 60 nM and 130 nM.
Take `CCN(CC)CC(=O)c1c[nH]c(/C=C2\C(=O)N(Cc3ncc(C)c(OC)c3C)c3nc(N)nc(Cl)c32)c1` [III-95, (Z)-2-Amino-4-chloro-5-((4-(2-(diethylamino)acetyl)-1H-pyrrol-2-yl)methylene)-7-((4-methoxy-3,5-dimethylpyridin-2-yl)methyl)-5H-pyrrolo[2,3-d]pyrimidin-6(7H)-one]: the IC50 in the assay with SKBR-3 (setting [6]) came to 2 nM; in assay [1] (setting [7]) it was 10 nM; in the assay on BT474 (setting [8]), 20 nM; in the assay with MCF-7 (setting [9]) it was 710 nM.
As for `COc1c(C)cnc(CN2C(=O)/C(=C\c3[nH]c(C)c(C(=O)NCCN4CCOCC4)c3C)c3c(Cl)nc(N)nc32)c1C` [III-103, (Z)-5-((2-Amino-4-chloro-7-((4-methoxy-3,5-dimethylpyridin-2-yl)methyl)-6-oxo-6,7-dihydro-5H-pyrrolo[2,3-d]pyrimidin-5-ylidene)methyl)-2,4-dimethyl-N-(2-morpholinoethyl)-1H-pyrrole-3-carboxamide], the IC50 in the assay with SKBR-3 (setting [6]) was 40 nM; in assay [1] (setting [7]) it was 70 nM; in the assay on BT474 (setting [8]), 110 nM; in the assay with MCF-7 (setting [9]), 810 nM.
Take `COc1c(C)cnc(CN2C(=O)/C(=C\c3[nH]c(C)c(C(=O)NCCN4CCCC4)c3C)c3c(Cl)nc(N)nc32)c1C` [III-104, (Z)-5-((2-Amino-4-chloro-7-((4-methoxy-3,5-dimethylpyridin-2-yl)methyl)-6-oxo-6,7-dihydro-5H-pyrrolo[2,3-d]pyrimidin-5-ylidene)methyl)-2,4-dimethyl-N-(2-(pyrrolidin-1-yl)ethyl)-1H-pyrrole-3-carboxamide]: the IC50 in the assay on SKBR-3 (setting [6]) is 10 nM; in assay [1] (setting [7]) it was 10 nM; in the assay on BT474 (setting [8]), 190 nM; with MCF-7 (setting [9]), 5880 nM.
As for `COc1c(C)cnc(CN2C(=O)/C(=C\c3[nH]c(C)c(C(=O)NCCN4CCCCC4)c3C)c3c(Cl)nc(N)nc32)c1C` [III-105, (Z)-5-((2-Amino-4-chloro-7-((4-methoxy-3,5-dimethylpyridin-2-yl)methyl)-6-oxo-6,7-dihydro-5H-pyrrolo[2,3-d]pyrimidin-5-ylidene)methyl)-2,4-dimethyl-N-(2-(piperidin-1-yl)ethyl)-1H-pyrrole-3-carboxamide], the half-maximal inhibitory concentration (IC50) with SKBR-3 (setting [6]) is 100 nM; in assay [1] (setting [7]) it was 70 nM; with BT474 (setting [8]), 1280 nM; with MCF-7 (setting [9]), over 1000 nM.
For the molecule `COc1c(C)cnc(CN2C(=O)/C(=C\c3[nH]c(C)c(C(=O)NCCN4CCS(=O)(=O)CC4)c3C)c3c(Cl)nc(N)nc32)c1C` [III-106, 5-[2-Amino-4-chloro-7-(4-methoxy-3,5-dimethyl-pyridin-2-ylmethyl)-6-oxo-6,7-dihydro-pyrrolo[2,3-d]pyrimidin-(5Z)-ylidenemethyl]-2,4-dimethyl-1H-pyrrole-3-carboxylic acid [2-(1,1-dioxo-thiomorpholin-4-yl)-ethyl]-amide], the IC50 with SKBR-3 (setting [6]) amounted to 40 nM; in assay [1] (setting [7]), 40 nM; with BT474 (setting [8]) it was 90 nM; in the assay with MCF-7 (setting [9]), 240 nM.
As to `COc1c(C)cnc(CN2C(=O)/C(=C\c3[nH]c(C)c(C(=O)NCCN4CCC(O)CC4)c3C)c3c(Cl)nc(N)nc32)c1C` [III-107, (Z)-5-((2-Amino-4-chloro-7-((4-methoxy-3,5-dimethylpyridin-2-yl)methyl)-6-oxo-6,7-dihydro-5H-pyrrolo[2,3-d]pyrimidin-5-ylidene)methyl)-N-(2-(4-hydroxypiperidin-1-yl)ethyl)-2,4-dimethyl-1H-pyrrole-3-carboxamide], the IC50 was 5 nM in the assay on SKBR-3 (setting [6]), 20 nM in assay [1] (setting [7]), 20 nM in the assay on BT474 (setting [8]) and 230 nM with MCF-7 (setting [9]).
